pIC50, pKi: −log10 of the molar value. Where only a bound is given, the exact number is not on record here.

In assay [1] the target is human Adenosine A3 receptor (Homo sapiens (Human), UniProt P0DMS8). In words: Adenosine receptor TR-FRET binding assay (A3). The settings on record: CHO cell membranes, 100 nM CA200645, Ki from IC50 by Cheng and Prusoff. The method, then: (§1) All FRET binding experiments were conducted at room temperature in white 384-well plates, in assay binding buffer containing 1× LabMed (Cisbio, France), 100 μg/mL saponin, 1% DMSO and 0.02% pluronic acid. Binding of the fluorescently labelled Adenosine receptor antagonist XAC (CA200645, FRET acceptor) to terbium-labelled A1, A2a, A2b and A3 adenosine receptors (FRET donors) was detected by time-resolved FRET due to the close proximity of the donor and acceptor in a binding event. To investigate the ability of unlabelled test compounds to bind to Adenosine A1, A2a, A2b and A3 receptors, dose response curves were constructed that determined the ability of a range of concentrations to inhibit the binding of 30 nM CA200645 to the A2b receptor and 100 nM CA200645 to the A1, A2a, and A3 receptor.
(§2) Serial dilution (1:3 dilutions) of test compounds in neat DMSO and transfer of a 400 nL sample of test compound into the assay plate was carried out using the Mosquito (TTP Labtech, UK). The compound samples were incubated for 2 hours at room temperature with a fixed concentration of CA200645 defined for each receptor (see above) and CHO cell membranes containing the human Adenosine A1 (0.5 μg/well), A2a (0.3 μg/well), A2b (1 μg/well) or A3 (1 μg/well) receptor in 40 μL of assay buffer. Total and non-specific binding of CA200645 was determined in the absence and presence of 10 μM XAC, respectively. Following 2 hours incubation, the level of CA200645 binding was detected on a Pherastar FSX (BMG Labtech, Germany) using standard TR-FRET settings. The terbium donor was excited with three laser flashes at a wavelength of 337 nm, and donor and acceptor emission was detected at 620 nm and 665 nm wavelengths, respectively. FRET ratios were obtained by multiplying the acceptor/donor ratio value by 10,000. Specific binding was determined by subtracting the non-specific binding FRET ratio from the total binding FRET ratio. Compound IC50 curves were analysed using GraphPad Prism 7.0 (GraphPad, USA) and Ki affinity values were determined from the obtained IC50 values using the method of Cheng and Prusoff.

In assay [2] the target is human Adenosine A2b receptor (Homo sapiens (Human), UniProt P29275). Kind of assay: Adenosine receptor TR-FRET binding assay (A2b). To be noted: CHO cell membranes, 30 nM CA200645, Ki from IC50 by Cheng and Prusoff. How it is done: as §1, §2
Assay [3] deals with human Adenosine A2a receptor (Homo sapiens (Human), UniProt P29274). In words: Adenosine receptor TR-FRET binding assay (A2a). The settings on record: CHO cell membranes, 100 nM CA200645, Ki from IC50 by Cheng and Prusoff. How it is done: as §1, §2
For orientation: Time-resolved FRET reads energy transfer from a long-lived donor to a nearby acceptor.

The test system of assay [4] is pCREB in CD8+ T cells in human whole blood. In words: Measurement of pCREB in CD8+ T cells in human whole blood. The format is cell-based. The settings on record: T-cell, 3 μM NECA, rolipram, FACS. The method, then:
Heparinised human whole blood was pre-incubated at 37° C. with serial dilutions of A2a antagonists for 20 min. and the phosphodiesterase inhibitor rolipram to amplify the pCREB response. The adenosine receptor agonist NECA is then added at a final concentration of 3 μM and following a 60 min incubation the blood is fixed and red blood cells lysed. White blood cells are isolated, permeabilized and stained with directly conjugated fluorescent antibodies to phospho-CREB (Alexa Fluor 488) and CD8 (Alexa Fluor 647) and the level of phospho-CREB in CD8+ T cells is measured by FACS using a BD Accuri C6 Flow Cytometer.

Assay [5] relates to human PBMCs. Kind of assay: CD3/CD28 stimulated IL-2 release NECA reversal assay in human PBMCs. The format is cell-based. The settings on record: PBMC, 1 uM NECA, 24 hours. How it is done:
Blood is drawn from healthy volunteers using sodium citrate as the anticoagulant (0.3% final concentration). After centrifugation of the blood over Histopaque-1077, PBMCs are collected from the Histopaque/plasma interface and washed twice in PBS (300 g for 10 mins at room temp). Cells are plated at 50,000 cells/well in 150 μl RPMI/10% FCS in 96-well cell culture plates that have been precoated with 1 ug/ml CD3 antibody. 50 μl diluted compound mix is added to the cells, to obtain final concentrations of 1 μg/ml CD28 antibody, 1 uM NECA and 0.003-10 μM adenosine receptor antagonist. Assay plates are incubated for 24 hours at 37° C. in a humidified incubator. Culture supernatant is tested for IL-2 levels using the human IL-2 Tissue Culture Kit (Meso Scale Discovery). Data for dose-response curves is calculated as % inhibition with 100% inhibition defined from no agonist control wells (+CD3/28-NECA)

Assay [6] addresses human Adenosine A1 receptor (Homo sapiens (Human), UniProt P30542). In words: Adenosine receptor TR-FRET binding assay (A1). To be noted: CHO cell membranes, 100 nM CA200645, Ki from IC50 by Cheng and Prusoff. How it is done:
as §1, §2

human Adenosine A2b receptor, sequence (P29275 whole entry): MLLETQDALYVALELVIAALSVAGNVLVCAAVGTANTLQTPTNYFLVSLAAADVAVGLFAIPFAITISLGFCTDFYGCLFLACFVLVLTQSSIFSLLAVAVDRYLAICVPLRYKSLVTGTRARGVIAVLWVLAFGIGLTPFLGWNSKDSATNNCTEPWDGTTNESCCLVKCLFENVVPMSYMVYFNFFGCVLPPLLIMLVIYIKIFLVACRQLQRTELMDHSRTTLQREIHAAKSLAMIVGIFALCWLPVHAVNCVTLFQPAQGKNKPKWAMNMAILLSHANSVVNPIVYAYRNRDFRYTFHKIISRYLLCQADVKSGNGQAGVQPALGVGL
human Adenosine A2a receptor, sequence (P29274 whole entry): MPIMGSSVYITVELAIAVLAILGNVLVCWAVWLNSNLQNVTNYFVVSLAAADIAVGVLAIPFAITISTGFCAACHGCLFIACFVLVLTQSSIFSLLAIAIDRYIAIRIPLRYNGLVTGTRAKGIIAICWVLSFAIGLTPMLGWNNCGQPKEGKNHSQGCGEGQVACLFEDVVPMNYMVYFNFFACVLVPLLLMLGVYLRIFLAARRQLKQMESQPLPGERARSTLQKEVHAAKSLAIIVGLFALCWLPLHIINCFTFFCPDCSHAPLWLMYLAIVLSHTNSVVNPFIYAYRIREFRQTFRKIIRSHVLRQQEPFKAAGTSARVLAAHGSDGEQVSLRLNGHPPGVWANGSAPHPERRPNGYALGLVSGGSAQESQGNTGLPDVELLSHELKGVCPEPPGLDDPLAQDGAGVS
human Adenosine A1 receptor, sequence (P30542 whole entry): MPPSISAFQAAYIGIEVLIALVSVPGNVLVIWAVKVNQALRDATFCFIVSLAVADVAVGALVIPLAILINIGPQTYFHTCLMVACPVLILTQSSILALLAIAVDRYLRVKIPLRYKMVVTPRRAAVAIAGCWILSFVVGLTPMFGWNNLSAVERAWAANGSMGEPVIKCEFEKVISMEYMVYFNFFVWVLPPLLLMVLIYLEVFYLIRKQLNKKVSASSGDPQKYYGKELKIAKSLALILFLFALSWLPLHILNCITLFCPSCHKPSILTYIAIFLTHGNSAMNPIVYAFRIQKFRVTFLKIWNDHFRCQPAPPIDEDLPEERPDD
human Adenosine A3 receptor, sequence (P0DMS8 whole entry): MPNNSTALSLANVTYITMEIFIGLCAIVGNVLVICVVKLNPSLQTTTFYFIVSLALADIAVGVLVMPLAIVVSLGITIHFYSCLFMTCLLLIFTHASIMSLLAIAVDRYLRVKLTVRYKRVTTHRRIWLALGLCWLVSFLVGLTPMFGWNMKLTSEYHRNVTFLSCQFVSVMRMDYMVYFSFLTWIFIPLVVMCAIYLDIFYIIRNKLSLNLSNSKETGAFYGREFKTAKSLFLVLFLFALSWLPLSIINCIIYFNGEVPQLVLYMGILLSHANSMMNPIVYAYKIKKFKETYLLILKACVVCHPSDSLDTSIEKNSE

The term pKi denotes the Ki on a negative log10 scale, so that one unit is a factor of ten. By pIC50 is commonly meant the IC50 on a negative log10 scale, so that one unit is a factor of ten. For the molecule `Cc1cc(-c2c(-c3cccc(C#N)c3)nc3ccc(C(=O)N[C@H](C)C(C)(C)O)nn23)cc(C(F)(F)F)n1` [Example 2.7, 2-(3-Cyanophenyl)-N-[(1R)-2-hydroxy-1,2-dimethyl-propyl]-3-[2-methyl-6-(trifluoromethyl)-4-pyridyl]imidazo[1,2-b]pyridazine-6-carboxamide], the pKi in assay [1] is < 6.00; in assay [2], 7.10; in assay [3], 9.47; in assay [6], 6.49. The results for the pIC50 in assay [4] and in assay [5] were 6.30 and 7.98, respectively.
With `Cc1cc(-c2c(-c3cccc(C#N)c3)nc3ccc(C(=O)N[C@@H](C)C(C)(C)O)nn23)cc(CO)n1` [Example 6, 2-(3-Cyanophenyl)-N-[(1S)-2-hydroxy-1,2-dimethyl-propyl]-3-[2-(hydroxymethyl)-6-methyl-4-pyridyl]imidazo[1,2-b]pyridazine-6-carboxamide], the pKi is < 6.00 in assay [1], 7.31 in assay [2], 9.17 in assay [3] and 6.92 in assay [6].
Take `Cc1cc(-c2c(-c3cccc(C#N)c3)nc3ccc(C(=O)N[C@@H](C)C(C)(C)O)nn23)cc(C(F)F)n1` [Example 2.5, 2-(3-Cyanophenyl)-3-[2-(difluoromethyl)-6-methyl-4-pyridyl]-N-[(1S)-2-hydroxy-1,2-dimethyl-propyl]imidazo[1,2-b]pyridazine-6-carboxamide]: the pKi in assay [1] is < 6.00; in assay [2], 7.47; in assay [3] it was 9.49; in assay [6], 7.11. Besides, the pIC50 in assay [4] is 6.98; in assay [5], 8.96.
In the case of `Cc1cc(-c2c(-c3cccc(C#N)c3)nc3ccc(C(=O)NCC(C)(C)O)nn23)cc(C)n1` [Example 2.1, 2-(3-Cyanophenyl)-3-(2,6-dimethyl-4-pyridyl)-N-(2-hydroxy-2-methyl-propyl)imidazo[1,2-b]pyridazine-6-carboxamide], the pKi was < 6.00 in assay [1], 6.67 in assay [2], 9.10 in assay [3] and 6.18 in assay [6]. The pIC50 in assay [4] is 6.91; in assay [5] it was 7.86.
For `CC(=O)c1cc(-c2c(-c3cccc(C#N)c3)nc3ccc(C(=O)NCC(C)(C)O)nn23)cc(C)n1` [Example 2, 3-(2-Acetyl-6-methyl-4-pyridyl)-2-(3-cyanophenyl)-N-(2-hydroxy-2-methyl-propyl)imidazo[1,2-b]pyridazine-6-carboxamide], the pKi is < 6.00 in assay [1], 5.80 in assay [2], 8.41 in assay [3] and 5.74 in assay [6].
As to `Cc1cc(-c2c(-c3cccc(C#N)c3)nc3ccc(C(=O)NCC(C)(C)O)nn23)cc(Cl)n1` [Example 2.2, 3-(2-Chloro-6-methyl-4-pyridyl)-2-(3-cyanophenyl)-N-(2-hydroxy-2-methyl-propyl)imidazo[1,2-b]pyridazine-6-carboxamide], the pKi was < 6.00 in assay [1], 7.57 in assay [2], 9.30 in assay [3] and 6.44 in assay [6]. Also, the results for the pIC50 in assay [4] and in assay [5] were 6.30 and 7.41, respectively.
In the case of `Cc1cc(-c2c(-c3cccc(C#N)c3)nc3ccc(C(=O)N[C@@H](C)C(C)(C)O)nn23)cc(C(F)(F)F)n1` [Example 2.6, 2-(3-Cyanophenyl)-N-[(1S)-2-hydroxy-1,2-dimethyl-propyl]-3-[2-methyl-6-(trifluoromethyl)-4-pyridyl]imidazo[1,2-b]pyridazine-6-carboxamide], the pKi in assay [1] is < 6.00; in assay [2] it was 7.74; in assay [3] it was 9.77; in assay [6], 7.52. Moreover, the results for the pIC50 in assay [4] and in assay [5] were 7.24 and 9.22, respectively.
Regarding `CC(C)(O)CNC(=O)c1ccc2nc(-c3cccc(C#N)c3)c(Br)n2n1` [Example 1, 3-Bromo-2-(3-cyanophenyl)-N-(2-hydroxy-2-methyl-propyl)imidazo[1,2-b]pyridazine-6-carboxamide], the pKi in assay [1] was < 6.00; in assay [2] it was 6.30; in assay [3], 7.96; in assay [6], 5.40.
For `Cc1cc(-c2c(-c3cccc(C#N)c3)nc3ccc(C(=O)N[C@@H](C)C(C)(C)O)nn23)cc(Cl)n1` [Example 2.9, 3-(2-Chloro-6-methyl-4-pyridyl)-2-(3-cyanophenyl)-N-[(1S)-2-hydroxy-1,2-dimethyl-propyl]imidazo[1,2-b]pyridazine-6-carboxamide], the pKi in assay [1] was < 6.00; in assay [2] it was 7.70; in assay [3], 9.70; in assay [6] it was 7.02. The pIC50 in assay [4] was 6.77; in assay [5], 8.28.
In the case of `COc1cc(-c2c(-c3cccc(C#N)c3)nc3ccc(C(=O)NCC(C)(C)O)nn23)cc(C)n1` [Example 2.4, 2-(3-Cyanophenyl)-N-(2-hydroxy-2-methyl-propyl)-3-(2-methoxy-6-methyl-4-pyridyl)imidazo[1,2-b]pyridazine-6-carboxamide], the pKi is < 6.00 in assay [1], 6.81 in assay [2], 8.64 in assay [3] and 6.54 in assay [6]. Moreover, the figures for the pIC50 in assay [4] and in assay [5] were 5.69 and 7.87, respectively.
For the molecule `COc1cc(-c2c(-c3cccc(C#N)c3)nc3ccc(C(=O)N[C@@H](C)C(C)(C)O)nn23)cc(C)n1` [Example 2.8, 2-(3-Cyanophenyl)-N-[(1S)-2-hydroxy-1,2-dimethyl-propyl]-3-(2-methoxy-6-methyl-4-pyridyl)imidazo[1,2-b]pyridazine-6-carboxamide], the pKi in assay [1] was < 6.00; in assay [2] it was 6.55; in assay [3], 9.72; in assay [6] it was 6.61. Besides, the pIC50 in assay [4] was 6.33; in assay [5], 8.34.
`Cc1cc(-c2c(-c3cccc(C#N)c3)nc3ccc(C(=O)N[C@@H](C)C(C)(C)O)nn23)cc(C)n1` [Example 3, 2-(3-Cyanophenyl)-3-(2,6-dimethyl-4-pyridyl)-N-[(1S)-2-hydroxy-1,2-dimethyl-propyl]imidazo[1,2-b]pyridazine-6-carboxamide]: the pKi in assay [1] is < 6.00; in assay [2], 7.51; in assay [3] it was 9.80; in assay [6], 7.15. The pIC50 in assay [4] was 7.21; in assay [5] it was 8.77.
For `Cc1cc(-c2c(-c3cccc(C#N)c3)nc3ccc(C(=O)NCC(C)(C)O)nn23)cc(C(F)(F)F)n1` [Example 2.3, 2-(3-Cyanophenyl)-N-(2-hydroxy-2-methyl-propyl)-3-[2-methyl-6-(trifluoromethyl)-4-pyridyl]imidazo[1,2-b]pyridazine-6-carboxamide], the pKi in assay [1] is < 6.00; in assay [2] it was 7.74; in assay [3], 9.34; in assay [6] it was 7.02. Also, the figures for the pIC50 in assay [4] and in assay [5] were 6.55 and 8.14, respectively.
